This is an account of results in patent US20260240854A1, “COMBINATIONS OF KRAS INHIBITOR AND ATR INHIBITOR FOR THE TREATMENT OF CANCER” (ASTRAZENECA AB, priority 2023, published 2026).

In this experiment the test system is CT26^G12C murine colon carcinoma cells. The experiment is described as follows: Anti-tumor study, CT26^G12C tumors grown subcutaneously in immunocompetent BALB/c mice. Conditions: for Survival rate compared to the control group / Tumor return: Example 1, study end day 54. It is filed as in vivo. As to the method:
All pathogen-free animals used in the studies below were housed in a controlled, pathogen-free environment with the following conditions: temperature (19-23° C.), humidity (55% 10%), photoperiod (12 h light/dark cycle), and air exchange. Animals were housed in individually vented cages, with food and water provided ad libitum.
Following testing materials were used for the preclinical, in vivo studies below: vehicle (0.5% HPMC/0.1% Tween 80), AZD4625 (0.5% HPMC/0.1% Tween 80), Compound of Formula IV (0.5% HPMC/0.1% Tween 80) and AZD6738 (10% DMSO/40% PG/50% WFI). For the monotherapies, the vehicle and the inhibitors were dosed orally in a volume of 0.05-0.1 mL/10 g. For the combination therapies, AZD4625 or Compound of Formula IV were dosed 4 or 2 hours after the AM dose of AZD6738.
Tumors were measured three times a week by caliper and the volumes were calculated using elliptical formula (pi/6×width×width×length). Animal bodyweight and tumor condition were also recorded for the duration of the study. Subject mice remained on study until tumor size reached 1.5 cm^3 for anti-tumor studies and 0.7 cm^3 for the rechallenge study, clinical signs were observed, or until the study end date.
(§1) For the study, CT26^G12C murine colon carcinoma cells, engineered to express the KRAS^G12C mutation, were grown subcutaneously in BALB/c mice with an intact immune system. To prepare the subject mice, 5×10^5 and 5×10^4 CT26^G12C (G12C clone P5E6) cells were implanted subcutaneously into the right flank of female BALB/c mice (Envigo UK, Strain ID: HSD-162) or female nude-Foxn1nu mice (Envigo UK, Strain ID: HSD-069), respectively. Once a mean volume of approximately 0.2 cm^3 tumor formed, subject mice were randomized into relevant treatment and control groups and treated with vehicle control, AZD4625 or AZD6738 in monotherapy, or in combination therapy for 4 weeks. AZD4625 was dosed daily and AZD6738 was dosed twice daily on a 7 day-on, 7 day-off schedules for the treatment period (FIG. 1A). Tumor growth and bodyweights of animals were monitored during and post-treatment. Subject mice remained on study until tumor size reached 1.5 cm^3, clinical signs were observed, or to the study end date (day 54).
as §1, with “vehicle control, AZD4625, Compound of Formula IV, or AZD6738” for “vehicle control, AZD4625 or AZD6738”, “monotherapy, or AZD4625 and AZD6738 or Compound of Formula IV and AZD6738 in combination” for “monotherapy, or in combination”, “weeks. AZD4625 and Compound of Formula IV were dosed daily” for “weeks. AZD4625 was dosed daily”, “period (FIG. 2A). Tumor growth” for “period (FIG. 1A). Tumor growth”, “study end date. Mice in the AZD4625 monotherapy and combination groups were monitored up to 65 days post-implant while mice in the Compound of Formula IV monotherapy and combination groups were monitored up to 119 days post-implant.” for “study end date (day 54).”
CT26^G12C murine colon carcinoma cells were grown subcutaneously in BALB/c mice with an intact immune system as described in Examples 1 and 2. […] Tumor growth and body weights of animals were monitored during and post-treatment. Subject mice remained on study until tumor size reached 1.5 cm^3, clinical signs were observed, or to the study end.

Where [1] appears, read: Example 5, 4 weeks treatment, compared to vehicle or to KRAS^G12C inhibitor monotherapy, FIG. 5A.
The mark [2] stands for this setting: Example 1, 4 weeks oral treatment, compared to control group, FIG. 1B.
The mark [3] stands for this setting: Example 2, 4 weeks oral treatment, FIG. 2B.

Turning to `C=CC(=O)N1CCN(c2nc(=O)n(-c3c(C)ccnc3C(C)C)c3nc(-c4c(O)cccc4F)c(F)cc23)[C@@H](C)C1` (atropisomer, axis not shown) [sotorasib, reference compound], under “Example 5”, the “Tumor return after drug cessation” value is “most tumors returning after drug cessation”. In addition, the Tumor growth response result under setting [1] is reported as “initial tumor growth delay”. Moreover, the Survival rates result (Example 5, FIG. 5B) is listed as “increased survival rates”.
In the case of `C=CC(=O)N1C[C@@H]2CCOc3c(Cl)c(-c4c(O)cccc4F)c(F)c4ncnc(c34)N2C[C@H]1C` [AZD4625, 1-[(6aS,9R)-3-chloro-1-fluoro-2-(2-fluoro-6-hydroxyphenyl)-9-methyl-5,6,6a,7,9,10-hexahydro-8H-pyrazino[1′,2′:5,6][1,5]oxazocino[4,3,2-de]quinazolin-8-yl]prop-2-en-1-one], the “Survival rate compared to the control group” value is “extended survival rate” and the Tumor return result is given as “most tumors ultimately returned”. Moreover, under setting [2], the Tumor growth response entry is “delayed tumor growth”. For the same compound, the Tumor growth response result under setting [3] was “tumor regression”.
As to `C[C@@H]1COCCN1c1cc(C2([S@](C)(=N)=O)CC2)nc(-c2ccnc3[nH]ccc23)n1` [AZD6738, 4-{4-[(3R)-3-methylmorpholin-4-yl]-6-[1-((R)—S-methylsulfonimidoyl)cyclopropyl]pyrimidin-2-yl}-1H-pyrrolo[2,3-b]pyridine], the “Survival rate compared to the control group” value was “extended survival rate” and the Tumor return result was “most tumors ultimately returned”. Further, the Tumor growth response entry under setting [2] is “delayed tumor growth”. The Tumor growth response entry under setting [1] is listed as “no or weak activity”.
On to `C=CC(=O)N1CCN2Cc3cc(C#CC)c(-c4c(O)cccc4Cl)c(F)c3OC[C@H]2C1` [Compound of Formula IV, 1-[(12aR)-9-(2-chloro-6-hydroxyphenyl)-10-fluoro-8-(prop-1-yn-1-yl)-3,4,12,12a-tetrahydro-6H-pyrazino[2,1-c][1,4]benzoxazepin-2(1H)-yl]prop-2-en-1-one], for which the Tumor growth response entry under setting [3] is “tumor regression”. For the same compound, the “Tumors returned after drug cessation” value (Example 2, monitored up to 119 days post-implant) is listed as 8 out of 9.
